This is an account of results in patent US10947202B2, “Sodium ion channel inhibitors and pharmaceutically acceptable salts and polymorphs thereof and uses thereof” (SHANGHAI HAIYAN PHARMACEUTICAL TECHNOLOGY CO., LTD., priority 2017, dated 2021).

One series addresses hNav1.7 (Homo sapiens, UniProt Q15858). The series can be described thus: Manual patch clamp experiment of hNav1.7 channel (CHO-hNav1.7 stable cell line). The format is cell-based. Conditions: for inhibition at 1 µM: read-out: Inhibition of Nav1.7, 1000 nM(%); for inhibition at 0.1 µM: read-out: Inhibition of Nav1.7, 100 nM(%). The text has this:
Patch voltage clamp electrophysiology allows for the direct measurement and quantification of current block of voltage-gated sodium channels (NaV's), and allows the determination of the time and voltage-dependence of block which has been interpreted as differential binding to the resting, open and inactivated states of the sodium channel to reflect the compound's inhibitory or activating effects (Hille, B., Journal of General Physiology (1977), 69: 497-515).
Representative compounds of the present disclosure were performed using a manual patch clamp experiment and the purpose of this study was to test the effect of compounds on this ion channel current on a stable cell line transfected with a specific ion channel using a manual patch clamp method, the used stable cell lines CHO-hNav1.7 and HEK-hNav1.5 were from Genionics and WuXi Apptec (Shanghai) respectively.
Manual patch clamp experimental program is as follows:
(1) Preparation of solutions and compounds: The whole cell patch clamp technique was used to record hNav1.7 and hNav1.5 currents. In the experiment, the composition of extracellular fluid (mM): HEPES: 5, NaCl: 40, KCl: CaCl2:1, MgCl2:1, CdCl2:0.1, TEA-Cl: 20. The pH was adjusted to 7.3 with NaOH and the osmotic pressure was adjusted to 310-320 mOsm with sucrose, filtered and stored at 4° C. The composition of the intracellular fluid (mM): HEPES: 10, NaCl: 10, CsOH: 5, CsF: 140, EGTA: 1. The pH was adjusted to 7.3 with CsOH and the osmotic pressure was adjusted to 280-290 mOsm with sucrose, filtered and stored at −20° C.
The positive control and the test compound were firstly dissolved in 100% DMSO (Sigma-Aldrich, D2650), configured as stock solution at a concentration (100 nM, 1000 nM).) The above stock solution was serially diluted with DMSO prior to the experiment, the solution was further diluted with extracellular solution to obtain the desired concentration of the test solution.
(2) Manual Patch Clamp Experiment: The cell suspension was added to a 35 mm petri dish and placed on an inverted microscope stage, the cells were perfused with an extracellular fluid and the flow rate was 1-2 mL/min after cell adherence. The glass microelectrode was pulled in two steps by a microelectrode puller with an inlet water resistance of 2-5 MΩ. A/D-D/A digital-analog conversion was performed by Digidata 1440 (Molecular Devices) and pCLAMP software (version 10.2, Molecular Devices) for stimulation and signal acquisition; the signal was amplified by patch clamp amplifier (Multiclamp 700B, Molecular Devices), filtering is 4 KHz.
Two different voltage stimulation procedures were used in the hNav1.7 and hNav1.5 manual patch clamp experiments.
One is the inactivation stimulation program, the clamp potential is set at V1/2 of the corresponding channel, ie about 50% of the channels are inactivated, then the voltage is applied to −120 mV for 50 ms, then depolarized to −10 mV for 20 ms leading to sodium current, and finally back to the clamp potential. This stimulation program can also be called channel state-dependent voltage stimulation program.
The other is the non-inactivation stimulation program, the clamp potential is maintained at −120 mV, voltage stimulation is given to −10 mV for 20 ms leading to sodium current, and finally back to the clamp potential. That is all channels have not experienced inactivation status, but activate directly from the resting state under the conditions of the stimulation program.
The time intervals of these two voltage stimulation program were 10 s. The inhibitory effect of the compound was calculated by the change of the current before and after dosing, the IC50 value was fitted by the Hill equation. […] The results are shown in Table 33 and Table 34, respectively.

Series [1] can be described thus: Metabolism stability test in liver microsomes. The format is in vitro ADME. The conditions noted are these: human liver microsomes. How it is done: Buffer A: 1 L solution of 100 mM potassium dihydrogen phosphate containing 1 mM EDTA (Sigma, V900157-100G) was prepared.
Buffer B: 1 L solution of 100 mM dipotassium hydrogen phosphate containing 1 mM EDTA was prepared.
Buffer C: 700 mL of buffer B was taken out and titrated with buffer A to pH 7.4.
2.1 10 μl of 10 mM compound to be tested and 10 μl of 10 mM ketanserin were taken out and 190 μl of pure acetonitrile was added to each of them to prepare 500 μM compound to be tested and ketanserin, respectively.
2.2 20 μl (20 mg/mL) of liver microsomes (Corning Lot. NO. 4133007) stock solution was added to 513.4 μl of buffer C on wet ice. 0.75 mg/mL liver microsomal solution was obtained.
2.3 1.5 μl of each of the above-mentioned compound to be tested and ketanserin solution was added to 498.5 μl of liver microsomal solution (0.7 5 mg/mL) respectively on wet ice. 1.5 μM mixed solution of compound to be tested and 1.5 μM mixed solution of ketanserin were obtained.
2.4 At the time points 0, 5, 15, 30, 45, and 60 min, 30 μl of the mixed solution of compound to be tested and 30 μl of the mixed solution of ketanserin were dispensed into the reaction plate on wet ice, respectively.
2.5 5 mg reduced coenzyme II (Roche, 10621706001) was weighed and dissolved in 1 mL of buffer C. 6 mM reduced coenzyme II solution was obtained. The reduced coenzyme II solution was dispensed into the reaction plate.
2.6 Imipramine was dissolved to give a 10 mM solution. 10 μl imipramine solution was added to 100 mL of blank acetonitrile to generate the internal reference.
2.7 At 0 min, 135 μL of iced acetonitrile (Merck (Lot. 1778229518)) containing the internal reference was added to each well and then 15 μL of buffer C was added.
2.8 The reaction plate was placed into a 37° C. water bath incubator for 5 min. In the reaction plate, 15 μL of reduced coenzyme II solution was added to each well to initiate the reaction, and the time keeping was started. At the time points of 5, 15, 30, 45, and 60 min, 135 μL of iced acetonitrile containing the internal reference was added to each well to terminate the reaction.
2.9 The reaction plate was sealed with an aluminum film, placed on a vibration mixer and shaken at 500 rpm for 5 min. The plate was then centrifuged in a centrifuge at 3750 rp for 15 min.
2.10 The sample was diluted with pure water in accordance with the ratio of 1:1 and detected by LC/MS. […]
Wherein, the K value and the proportional factor were calculated by those skilled in the art according to the methods described in the prior art and contained in the instructions of the liver microsome product.

hNav1.7, sequence (Q15858 whole entry): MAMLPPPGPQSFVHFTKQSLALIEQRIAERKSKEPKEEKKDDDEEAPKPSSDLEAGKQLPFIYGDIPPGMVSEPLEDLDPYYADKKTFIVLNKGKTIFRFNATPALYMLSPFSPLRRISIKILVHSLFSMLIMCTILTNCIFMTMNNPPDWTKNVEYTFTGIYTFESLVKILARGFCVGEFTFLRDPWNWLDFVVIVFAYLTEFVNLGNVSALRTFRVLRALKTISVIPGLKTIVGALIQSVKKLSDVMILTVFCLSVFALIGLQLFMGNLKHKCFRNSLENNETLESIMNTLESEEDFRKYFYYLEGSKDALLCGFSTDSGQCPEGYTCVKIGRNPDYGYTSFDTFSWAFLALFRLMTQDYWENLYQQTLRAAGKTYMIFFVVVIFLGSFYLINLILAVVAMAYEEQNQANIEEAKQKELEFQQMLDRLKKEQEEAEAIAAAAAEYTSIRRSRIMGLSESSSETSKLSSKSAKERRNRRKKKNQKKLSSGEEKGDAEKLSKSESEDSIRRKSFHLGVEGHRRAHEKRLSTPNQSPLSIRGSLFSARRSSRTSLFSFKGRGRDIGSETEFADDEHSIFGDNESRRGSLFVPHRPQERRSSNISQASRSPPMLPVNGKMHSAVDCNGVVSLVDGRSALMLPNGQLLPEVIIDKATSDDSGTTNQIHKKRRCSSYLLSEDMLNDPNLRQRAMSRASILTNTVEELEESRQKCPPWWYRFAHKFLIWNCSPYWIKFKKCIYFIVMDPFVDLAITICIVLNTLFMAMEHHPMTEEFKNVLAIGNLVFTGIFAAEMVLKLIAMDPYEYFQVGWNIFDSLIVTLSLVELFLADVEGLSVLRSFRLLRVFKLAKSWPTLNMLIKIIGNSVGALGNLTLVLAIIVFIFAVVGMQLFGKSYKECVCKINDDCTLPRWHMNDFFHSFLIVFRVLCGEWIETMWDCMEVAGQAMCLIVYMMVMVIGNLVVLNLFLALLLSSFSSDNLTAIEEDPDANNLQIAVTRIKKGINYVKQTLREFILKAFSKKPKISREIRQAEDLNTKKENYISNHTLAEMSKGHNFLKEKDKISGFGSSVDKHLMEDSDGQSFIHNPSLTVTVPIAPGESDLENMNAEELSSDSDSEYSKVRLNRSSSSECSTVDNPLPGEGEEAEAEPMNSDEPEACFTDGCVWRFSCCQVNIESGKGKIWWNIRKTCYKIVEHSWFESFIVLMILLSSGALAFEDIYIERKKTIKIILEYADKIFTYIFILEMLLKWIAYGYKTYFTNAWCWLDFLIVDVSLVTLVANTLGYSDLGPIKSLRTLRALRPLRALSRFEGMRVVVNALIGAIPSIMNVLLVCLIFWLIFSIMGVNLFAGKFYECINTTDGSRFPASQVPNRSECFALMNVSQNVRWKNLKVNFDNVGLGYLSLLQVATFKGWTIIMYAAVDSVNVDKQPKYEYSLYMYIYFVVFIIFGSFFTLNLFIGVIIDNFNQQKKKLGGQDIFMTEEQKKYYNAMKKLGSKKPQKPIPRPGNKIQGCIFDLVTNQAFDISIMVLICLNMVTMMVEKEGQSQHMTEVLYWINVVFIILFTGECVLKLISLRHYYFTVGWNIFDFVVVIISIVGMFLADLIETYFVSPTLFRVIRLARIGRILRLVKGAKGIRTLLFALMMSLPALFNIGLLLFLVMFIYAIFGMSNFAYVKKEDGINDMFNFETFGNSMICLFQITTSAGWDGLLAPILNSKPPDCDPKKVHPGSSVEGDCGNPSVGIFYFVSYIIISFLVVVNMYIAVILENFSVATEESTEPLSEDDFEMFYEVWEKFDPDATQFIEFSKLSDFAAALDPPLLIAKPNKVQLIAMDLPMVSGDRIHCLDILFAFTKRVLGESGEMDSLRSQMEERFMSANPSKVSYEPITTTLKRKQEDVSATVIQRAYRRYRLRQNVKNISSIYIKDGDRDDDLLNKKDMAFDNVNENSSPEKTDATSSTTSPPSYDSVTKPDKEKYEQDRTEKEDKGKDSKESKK

A word on the inhibition: it is how much of the control response was suppressed. Take `O=C(NS(=O)(=O)C1CC1)c1cc(Cl)c(CN2CCN(Cc3ccc(Cl)cc3)CC2)cc1F` [C6]: the inhibition at 1 µM at hNav1.7 was determined as 67.2%.
Regarding `CS(=O)(=O)NC(=O)c1cc(C2CC2)c(CN2CCN(Cc3ccc(Cl)c(Cl)c3)CC2)cc1F` [C2], on hNav1.7, the inhibition at 0.1 µM was 52% and the inhibition at 1 µM stood at 64%.
Regarding `CS(=O)(=O)NC(=O)c1cc(Cl)c(CN2CCN(c3ccc(C4CC4)c(Cl)c3)CC2)cc1F` [C12, reference compound], the “Clearance ratio” value in series [1] is recorded as 78.28 mL/min/kg.
Consider `O=C(NS(=O)(=O)C1CC1)c1cc(C2CC2)c(CN2CCN(Cc3cc(Cl)cc(Cl)c3)CC2)cc1F` [C1], for which, on hNav1.7, the inhibition at 0.1 µM is 49.2% and the inhibition at 1 µM is 64.8%.
In the case of `Cc1cc(N2CCN(Cc3cc(F)c(C(=O)NS(C)(=O)=O)cc3Cl)CC2)ccc1Cl` [C13, reference compound], the “Clearance ratio” value in series [1] was 138.91 mL/min/kg.
